Experimental data: patent US20230226016A1, “AGENTS AND METHODS FOR TREATING TAUOPATHIES” (The Regents of University of California, priority 2020, published 2023)

Columns and labels:
[1] = tested on: crude AD brain extract; experiment: Seeding by crude AD brain extract in tau biosensor cells, Ferumoxytol conjugates, no pre-incubation; assay type: cell-based, human; conditions: mixed with extract and immediately transfected
Excerpt: (A) Seeding by crude AD brain extract measured in tau biosensor cells that were co-transfected with nanoparticles coupled to EGCG by linkers of varying length. (B-C) Negative-stain electron micrographs of EGCG-conjugated and non-conjugated nanoparticles. Nanoparticle coupled with EGCG analog 5c (B) cluster with fibrils of AD-tau. No clustering is seen between non-conjugated nanoparticles and AD-tau fibrils (C).
We tested the activity of Ferumoxytol conjugated EGCG analogs using the biosensor cell assay described above, except we omitted the pre-incubation step such that our assay more closely resembled the scenario of therapeutic intervention, for which there is no pre-incubation period. Nanoparticle conjugated EGCG derivative was mixed with crude AD brain extract and immediately transfected into tau biosensor cells.

[2] = tested on: AD crude brain extracts; experiment: Seeding by crude AD brain extract pre-treated with inhibitor, tau biosensor cells (Example 5); assay type: cell-based, human; conditions: 10 μM final on cells, pre-incubated 16-18 hours
Excerpt: (A) Seeding by crude AD brain extract pre-treated with EGCG or experimental linker-conjugated analogs, as indicated. Inhibitor activity is read-out by measuring seeding in tau biosensor cells. Seeding is taken as a proxy for the fibril load that is contained within the AD crude brain extracts. Reduction in fibril load following treatment with experimental linker-conjugated analogs of EGCG reduces prion-like seeding by AD-tau nearly as effectively as EGCG itself. (B) Representative fluorescence images of tau biosensor cells experiments from A. Intracellular aggregates seeded by crude AD brain extracts are identified as puncta (green dots in the “No inhibitor” treated sample, left fluorescence micrograph). Inhibitor treatment reduces the number of puncta (right fluorescence micrograph). The number of puncta as a function of inhibitor pre-treatment is plotted in A.
We next tested if the D-ring site of triazole-linked amino PEGylation would interfere with tau fibril disaggregation observed for EGCG. […] Crude extract of autopsied brain tissue of a donor with AD (prepared as described in the SI) were pre-incubated with inhibitors (10 μM final concentration on cells) for 16-18 hours and resulting homogenates were added to the cells for imaging 3 days later.

[3] = tested on: crude brain extracts from donors with AD; experiment: Inhibition of seeding by crude AD brain extracts in tau biosensor cells; conditions: 10 μM
Procedure: (§2) (a) Seeding following overnight preincubation of AD brain purified tau fibrils with a final inhibitor concentration of 10 μM. Seeding was measured 3 days after transfecting biosensor cells with fibril-inhibitor complexes. […] Error bars show the standard deviation of triplicate measurements. […] Seeding (expressed as 10 power) was measured as in a, and IC50 values were calculated from dose-response plots. […] Each column represents the inhibitor response of a different donor. Inhibitor concentrations were 10 μM. Responses to inhibitors were normalized to seeding in the absence of inhibitor, abbreviated “No Inh”, and normalized seeding values for each inhibitor were plotted from maximal inhibitor response (low fractional seeding, left) to minimal response (seeding approaching a value of 1.0, right) for each of the indicated inhibitors.
(§3) After twenty minutes, 10 μl of fibrils were added to 90 μl of tau biosensor cells. The number of seeded aggregates was determined by imaging the entire well of a 96-well plate in triplicate using a Celigo Image Cytometer (Nexcelom) in the YFP channel. Aggregates were counted using ImageJ^45 by subtracting the background fluorescence from unseeded cells and then counting the number of peaks with fluorescence above background using the built-in Particle Analyzer. […]

[4] = tested on: tau fibrils purified from AD brain tissue; experiment: Negative stain electron microscopy of AD brain-derived tau fibrils; parameters: species or system human; conditions: 100 μM EGCG, overnight, 37° C.
Procedure: (§1) (a) Isothermal titration calorimetry (ITC) of 750 μM EGCG into 75 μM recombinant tau-K18+ fibrils. The binding isotherm was fit using a standard 1 site binding model. (b) ThT assay showing the effect EGCG or negative control, doxycycline, have on the aggregation of 20 μM tau-K18+ monomer^33, a construct that contains all of the residues that are observed in the AD tau fibril core^7,9. Note the sudden drop in ThT signal at 10 hrs (marked by a red arrow) for the sample containing EGCG. (c) Negative stain electron micrographs of 75 μM recombinant tau-K18+ fibrils prior to incubation with EGCG (top) or following 1 or 3 hour incubation with a two-fold molar excess of EGCG at room temperature, as indicated. (d) As in c except EGCG micrographs of tau are of fibrils purified from AD brain tissue and EGCG treatments were carried out at a concentration of 100 μM for a 3 hour or overnight duration at 37° C., as indicated.
To prepare specimens of AD brain-derived tau fibrils for structural studies, we examined negatively stained EM grids of purified tau fibrils from the frontal cortex of AD donor 1 (FIG. 1a) at various times following incubation with EGCG. AD brain-derived tau fibrils were more robust than recombinant tau fibrils and disaggregation was accelerated by incubation at 37° C. […]

[5] = tested on: crude brain extracts from donors with PSP; experiment: Inhibition of seeding by crude PSP brain extracts in tau biosensor cells; conditions: 10 μM, N=7 donors
Procedure: as §2, §3

[6] = target: T1, tau-K18+ monomer (Homo sapiens, UniProt P10636); experiment: ThT aggregation kinetics assay; assay type: biochemical; conditions: 20 μM tau-K18+ monomer, equimolar inhibitor
T1 construct: Human Tau tau-K18+(residues Q244-E380 of 4R tau); made in house; host or cells: E. coli BL21-Gold, pNG2 vector
Procedure: as §1
Concentrated tau-K18+ was diluted into PBS buffer (pH 7.4) to a final concentration of 20 μM with an equimolar ratio of indicated small molecule inhibitor. […] ThT fluorescence was measured with excitation and emission wavelengths of 440 and 480 nm, and averaged curves were generated from triplicate measurements as indicated in the figure legend. […]

[7] = target: T2, recombinant tau-K18+ fibrils (Homo sapiens, UniProt P10636); experiment: Negative stain electron microscopy of recombinant tau fibrils; conditions: 75 μM fibrils, two-fold molar excess of EGCG, 3 hr, room temperature
Procedure: as §1

[8] = target: T2, recombinant tau-K18+ fibrils; experiment: Isothermal titration calorimetry (ITC); conditions: 750 μM EGCG into 75 μM fibrils, 1 site binding model
Procedure: as §1
Human Tau tau-K18+(residues Q244-E380 of 4R tau) was expressed in a pNG2 vector in BL21-Gold E. coli cells grown in LB to an OD600=0.8. Cells were induced with 0.5 mM IPTG for 3 hours at 37° C. and lysed by sonication in 20 mM MES buffer (pH 6.8) with 1 mM EDTA, 1 mM MgCl2, 1 mM DTT and HALT protease inhibitor before addition of NaCl 500 mM final concentration. […]

[9] = target: fibrils of recombinant tau40 (Homo sapiens, UniProt P10636); experiment: EGCG dose dependence on seeding in tau biosensor cells, fibrils of recombinant tau40 as seeds
Procedure: Error bars show the standard deviation of triplicate measurements. […] (e) EGCG dose dependence on seeding by fibrils of recombinant tau40. Seeding (expressed as 10 power) was measured as in a, and IC50 values were calculated from dose-response plots.
After twenty minutes, 10 μl of fibrils were added to 90 μl of tau biosensor cells. The number of seeded aggregates was determined by imaging the entire well of a 96-well plate in triplicate using a Celigo Image Cytometer (Nexcelom) in the YFP channel. Aggregates were counted using ImageJ^45 by subtracting the background fluorescence from unseeded cells and then counting the number of peaks with fluorescence above background using the built-in Particle Analyzer. The number of aggregates was normalized to the confluence of each well, and dose-response plots were generated by calculating the average and standard deviations from triplicate measurements. For high quality images, cells were photographed on a ZEISS Axio Observer D1 fluorescence microscope using the YFP fluorescence channel.

[10] = tested on: tau fibrils purified from AD brain; experiment: Inhibition of seeding in tau-K18 biosensor cells, AD brain purified tau fibrils as seeds; conditions: 10 μM inhibitor, overnight preincubation, seeding measured 3 days after transfection
Procedure: as §2, §3

[11] = target: PHFE2 fibrils (Homo sapiens, UniProt P10636); experiment: ThT measurement of PHFE2 peptide fibrils; conditions: 5 mM EGCG, 30 mM fibrils, 30 min incubation
Procedure: (c) ThT signal of fibrils formed from PHFE2 peptide without EGCG, or following 30 min incubation. Error bars show the standard deviation of triplicate measurements.
Fibrils were grown at 37° C. in an orbital shaker with shaking at 350 rpm for 3-4 weeks. Solutions were removed from shaking and heat upon appearance of fibrils, confirmed by negative stain EM. For ThT experiments, fibrils were diluted to 30 mM in PBS, and ThT was added to a final concentration of 40 μM. EGCG was added from a concentrated stock to a final concentration of 5 mM where indicated. ThT measurements were carried out as described above, except readings were taken from a 384-well plate with a volume of 35 μl.

T2 sequence (P10636 561-697): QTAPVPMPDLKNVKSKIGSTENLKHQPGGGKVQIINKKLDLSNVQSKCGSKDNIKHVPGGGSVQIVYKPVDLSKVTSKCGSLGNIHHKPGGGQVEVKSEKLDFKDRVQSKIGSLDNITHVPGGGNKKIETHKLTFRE
T1 sequence (P10636 561-697): as above
Chain of fibrils of recombinant tau40 (P10636 1-441 isoform P10636-8): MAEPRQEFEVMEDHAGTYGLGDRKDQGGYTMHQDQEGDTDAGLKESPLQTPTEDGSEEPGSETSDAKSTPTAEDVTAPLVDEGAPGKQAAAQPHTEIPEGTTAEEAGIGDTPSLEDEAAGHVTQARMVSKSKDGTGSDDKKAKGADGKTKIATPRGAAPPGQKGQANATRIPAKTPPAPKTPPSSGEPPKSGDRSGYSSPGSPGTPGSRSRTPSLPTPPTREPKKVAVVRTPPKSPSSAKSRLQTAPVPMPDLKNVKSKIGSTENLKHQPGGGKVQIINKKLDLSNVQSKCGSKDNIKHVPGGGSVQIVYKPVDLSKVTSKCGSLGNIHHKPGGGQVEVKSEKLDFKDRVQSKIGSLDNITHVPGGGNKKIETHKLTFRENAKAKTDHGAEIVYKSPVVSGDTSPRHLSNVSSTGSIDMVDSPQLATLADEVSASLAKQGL

SMILES: NCCOCCn1cc(COc2c(O)cc(C(=O)O[C@@H]3Cc4c(O)cc(O)cc4O[C@@H]3c3cc(O)c(O)c(O)c3)cc2O)nn1 [Compound 5a, (2R,3R)-5,7-dihydroxy-2-(3,4,5-trihydroxyphenyl)chroman-3-yl 4-((1-(2-(2-aminoethoxy)ethyl)-H-1,2,3-triazol-4-yl)methoxy)-3,5-dihydroxybenzoate]
- inhibition of seeding by crude AD brain extract, Ferumoxytol conjugated analogs [1]: < 50%

SMILES: NCCOCCOCCOCCn1cc(COc2c(O)cc(C(=O)O[C@@H]3Cc4c(O)cc(O)cc4O[C@@H]3c3cc(O)c(O)c(O)c3)cc2O)nn1 [Compound 5c, (2R,3R)-5,7-dihydroxy-2-(3,4,5-trihydroxyphenyl)chroman-3-yl 4-((1-(2-(2-(2-(2-aminoethoxy)ethoxy)ethoxy)ethyl)-H-1,2,3-triazol-4-yl)methoxy)-3,5-dihydroxybenzoate]
- inhibition of seeding by AD brain extracts compared with EGCG [2]: potency nearly on par with EGCG itself

SMILES: O=C(O[C@@H]1Cc2c(O)cc(O)cc2O[C@@H]1c1ccc(O)c(O)c1)c1cc(O)c(O)c(O)c1 [ECG]
- inhibition of seeding by AD brain extracts compared with EGCG [2]: inhibit seeding as well as the linker-conjugated analogs

SMILES: O=C(O[C@@H]1Cc2c(O)cc(O)cc2O[C@@H]1c1cc(O)c(O)c(O)c1)c1cc(O)c(O)c(O)c1 [EGCG, (−)-epigallocatechin gallate]
- fractional seeding by AD brain samples ([3]; 15 AD crude brain extracts, normalized to no inhibitor): zero
- inhibition of seeding by crude AD brain extracts ([3]; N=15 donors, all patient samples): at least 50%
- disaggregation of AD brain-derived tau fibrils (EM) [4]: most of the AD brain-derived tau fibrils are lost
- blocking of seeding by crude PSP brain extracts [5]: near perfect efficacy
- inhibition of seeding by crude PSP brain extracts ([5]; all patient samples): at least 50%
- ThT signal of fibrils formed in the presence of inhibitor [6]: abruptly fell after reaching a plateau at 10 hr
- lag time of tau aggregation (ThT) [6]: no shift in the lag time
- disaggregation of recombinant tau fibrils (EM) [7]: virtually vanish
- stoichiometry N (ITC) [8]: 0.86
- Kd ([8]; read-out: affinity (ITC)): 1600 nM
- IC50 [9]: 400 nM
- inhibition of seeding by tau fibrils purified from AD brain [10]: most effective inhibitors of seeding
- ThT signal of PHFE2 fibrils after addition of inhibitor [11]: eliminated nearly any measurable ThT signal
